{
  "source": "patent US20260014105A1",
  "about": "“POWDER MIXTURE COMPRISING REPARIXIN” (Dompe' Farmaceutici SPA, priority 2022, published 2026)",
  "origin": "cited, not measured here",
  "test_system": "hospitalized patients with severe COVID-19 pneumonia",
  "data": [
    {"smiles": "CC(C)Cc1ccc([C@@H](C)C(=O)NS(C)(=O)=O)cc1", "note": "[reparixin, R-(−)-2-(4-isobutylphenyl)propionyl methansulfonamide]", "values": [
      {"measurement": "Clinical outcomes compared with the standard of care", "value": "improved clinical outcomes"}
    ]}
  ]
}
